In this data set the test system is CCRIS mutagenicity, Ames/micronucleus/aberration tests. The experiment in a line: CCRIS mutagenicity studies.
Setting [1] is: Test System: AMES SALMONELLA TYPHIMURIUM, Strain/Indicator: TA100, Metabolic Activation: NONE, Method: PREINCUBATION

Each structure is given as a SMILES string. Calls of active or inactive are those of the source. The rule behind the calls is not given here.

As to `Nc1ccc2nc3ccccn3c2n1`, the mutagenic call is “inactive; negative” (Test System: AMES SALMONELLA TYPHIMURIUM, Strain/Indicator: TA97, Metabolic Activation: NONE, Method: STANDARD PLATE); “active; positive” (Test System: AMES SALMONELLA TYPHIMURIUM, Strain/Indicator: TA97, Metabolic Activation: RAT, LIVER, S-9, AROCLOR 1254, Method: STANDARD PLATE); “active; positive” (Test System: AMES SALMONELLA TYPHIMURIUM, Strain/Indicator: TA98, Metabolic Activation: MONKEY, LIVER, S-9, Method: PREINCUBATION); “active; positive” (Test System: AMES SALMONELLA TYPHIMURIUM, Strain/Indicator: TA98, Metabolic Activation: MOUSE, LIVER, MICROSOMES, TCDD, Method: STANDARD PLATE); “inactive; negative” (Test System: AMES SALMONELLA TYPHIMURIUM, Strain/Indicator: TA98, Metabolic Activation: MOUSE, LIVER, MICROSOMES, Method: STANDARD PLATE); “inactive; negative” (Test System: AMES SALMONELLA TYPHIMURIUM, Strain/Indicator: TA98, Metabolic Activation: NONE, Method: STANDARD PLATE). Besides, the mutagenic call by setting is: (Test System: AMES SALMONELLA TYPHIMURIUM, Strain/Indicator: TA98, Metabolic Activation: RAT, LIVER, CYTOSOL, AROCLOR 1254, Method: STANDARD PLATE) “inactive; negative”; (Test System: AMES SALMONELLA TYPHIMURIUM, Strain/Indicator: TA98, Metabolic Activation: RAT, LIVER, MICROSOMES, AROCLOR 1254, Method: STANDARD PLATE) “inactive; negative”; (Test System: AMES SALMONELLA TYPHIMURIUM, Strain/Indicator: TA98, Metabolic Activation: RAT, LIVER, S-9, AROCLOR 1254, Method: PREINCUBATION) “active; positive”; (Test System: AMES SALMONELLA TYPHIMURIUM, Strain/Indicator: TA98, Metabolic Activation: RAT, LIVER, S-9, AROCLOR 1254, Method: STANDARD PLATE) “active; positive”; (Test System: AMES SALMONELLA TYPHIMURIUM, Strain/Indicator: TA100, Metabolic Activation: NONE, Method: STANDARD PLATE) “inactive; negative”; (Test System: AMES SALMONELLA TYPHIMURIUM, Strain/Indicator: TA100, Metabolic Activation: RAT, LIVER, S-9, AROCLOR 1254, Method: PREINCUBATION) “active; positive”. The mutagenic call by setting is: (Test System: AMES SALMONELLA TYPHIMURIUM, Strain/Indicator: TA100, Metabolic Activation: RAT, LIVER, S-9, AROCLOR 1254, Method: STANDARD PLATE) “active; positive”; (Test System: AMES SALMONELLA TYPHIMURIUM, Strain/Indicator: TA100, Metabolic Activation: RAT, LIVER, S-9, N-BENZYLIMIDAZOLE, Method: PREINCUBATION) “active; positive”; (Test System: AMES SALMONELLA TYPHIMURIUM, Strain/Indicator: YG1019, Metabolic Activation: RAT LIVER S-9, AROCLOR, Method: PREINCUBATION) “active; positive”.

In the case of `Nc1ccc(Br)cc1`, the mutagenic call (End Point: IN VITRO MICRONUCLEUS, Test System: CHL/IU CELLS, Metabolic Activation: RAT, LIVER, S-9, PHENOBARBITAL AND 5,6-BENZOFLAVONE) is “active; positive”; the mutagenic call (Test System: AMES SALMONELLA TYPHIMURIUM, Strain/Indicator: TA97, Metabolic Activation: HAMSTER, LIVER, S-9, AROCLOR 1254 (10%), Method: PREINCUBATION) was “inactive; negative”; the mutagenic call (Test System: AMES SALMONELLA TYPHIMURIUM, Strain/Indicator: TA97, Metabolic Activation: HAMSTER, LIVER, S-9, AROCLOR 1254 (30%), Method: PREINCUBATION) is “inactive; negative”; the mutagenic call (Test System: AMES SALMONELLA TYPHIMURIUM, Strain/Indicator: TA97, Metabolic Activation: NONE, Method: PREINCUBATION) was “inactive; negative”; the mutagenic call (Test System: AMES SALMONELLA TYPHIMURIUM, Strain/Indicator: TA97, Metabolic Activation: RAT, LIVER, S-9, AROCLOR 1254 (10%), Method: PREINCUBATION) is “inactive; negative”; the mutagenic call (Test System: AMES SALMONELLA TYPHIMURIUM, Strain/Indicator: TA97, Metabolic Activation: RAT, LIVER, S-9, AROCLOR 1254 (30%), Method: PREINCUBATION) is “inactive; negative”. In addition, the mutagenic call (Test System: AMES SALMONELLA TYPHIMURIUM, Strain/Indicator: TA98, Metabolic Activation: HAMSTER, LIVER, S-9, AROCLOR 1254 (10%), Method: PREINCUBATION) is “inactive; negative”; the mutagenic call (Test System: AMES SALMONELLA TYPHIMURIUM, Strain/Indicator: TA98, Metabolic Activation: HAMSTER, LIVER, S-9, AROCLOR 1254 (30%), Method: PREINCUBATION) was “inactive; negative”; the mutagenic call (Test System: AMES SALMONELLA TYPHIMURIUM, Strain/Indicator: TA98, Metabolic Activation: NONE, Method: PREINCUBATION) is “inactive; negative”; the mutagenic call (Test System: AMES SALMONELLA TYPHIMURIUM, Strain/Indicator: TA98, Metabolic Activation: RAT, LIVER, S-9, AROCLOR 1254 (10%), Method: PREINCUBATION) was “inactive; negative”; the mutagenic call (Test System: AMES SALMONELLA TYPHIMURIUM, Strain/Indicator: TA98, Metabolic Activation: RAT, LIVER, S-9, AROCLOR 1254 (30%), Method: PREINCUBATION) was “inactive; negative”; the mutagenic call (Test System: AMES SALMONELLA TYPHIMURIUM, Strain/Indicator: TA100, Metabolic Activation: HAMSTER, LIVER, S-9, AROCLOR 1254 (10%), Method: PREINCUBATION) is “inactive; negative”. Also, the mutagenic call by setting is: (Test System: AMES SALMONELLA TYPHIMURIUM, Strain/Indicator: TA100, Metabolic Activation: HAMSTER, LIVER, S-9, AROCLOR 1254 (30%), Method: PREINCUBATION) “inactive; negative”; under setting [1], “inactive; negative”; (Test System: AMES SALMONELLA TYPHIMURIUM, Strain/Indicator: TA100, Metabolic Activation: RAT, LIVER, S-9, AROCLOR 1254 (10%), Method: PREINCUBATION) “inactive; negative”; (Test System: AMES SALMONELLA TYPHIMURIUM, Strain/Indicator: TA100, Metabolic Activation: RAT, LIVER, S-9, AROCLOR 1254 (30%), Method: PREINCUBATION) “inactive; negative”; (Test System: AMES SALMONELLA TYPHIMURIUM, Strain/Indicator: TA1535, Metabolic Activation: HAMSTER, LIVER, S-9, AROCLOR 1254 (10%), Method: PREINCUBATION) “inactive; negative”; (Test System: AMES SALMONELLA TYPHIMURIUM, Strain/Indicator: TA1535, Metabolic Activation: HAMSTER, LIVER, S-9, AROCLOR 1254 (30%), Method: PREINCUBATION) “inactive; negative”. For the same compound, the mutagenic call runs as follows: (Test System: AMES SALMONELLA TYPHIMURIUM, Strain/Indicator: TA1535, Metabolic Activation: NONE, Method: PREINCUBATION) “inactive; negative”; (Test System: AMES SALMONELLA TYPHIMURIUM, Strain/Indicator: TA1535, Metabolic Activation: RAT, LIVER, S-9, AROCLOR 1254 (10%), Method: PREINCUBATION) “inactive; negative”; (Test System: AMES SALMONELLA TYPHIMURIUM, Strain/Indicator: TA1535, Metabolic Activation: RAT, LIVER, S-9, AROCLOR 1254 (30%), Method: PREINCUBATION) “inactive; negative”; (Test System: E. COLI, Strain/Indicator: WP2 UVRA, Metabolic Activation: NONE, Method: FLUCTUATION TEST) “inactive; negative”.

Consider `CC1=C(O)C(=O)C(O)CO1` (centres undefined), for which the mutagenic call under setting [1] is “active; positive” and the mutagenic call (Test System: AMES SALMONELLA TYPHIMURIUM, Strain/Indicator: TA100, Metabolic Activation: S-9, Method: PREINCUBATION) is “active; positive”.

The values are drawn from PubChem BioAssay AID1259407 (Chemical Carcinogenesis Research Information System (CCRIS), 2018).
